Laboratory results reported in patent US20050060764A1, “Mouse model for bone metabolism” (priority 2003, published 2005).
Strand notation (5' to 3'): a small letter for the sugar, then the base; units joined by * are phosphorothioate-linked, units joined directly phosphodiester-linked; [ ] holds rarer units or linkages, { } end groups; capitals alone tell only the bases. e = 2'-O-(2-methoxyethyl) (MOE); [5mC] = 5-methylcytosine; d = 2'-deoxy (DNA)

Columns and labels:
RANK mRNA = RANK mRNA expression in mouse bone marrow after antisense oligonucleotide treatment and PTH infusion: time course (Table 13); format: in vivo; conditions: then 24 h PTH
Procedure: (§1) Female Swiss-Webster mice (5-8 wks old) were fed a low-calcium diet and received daily subcutaneous injections of 30 mg/kg of ISIS 181071 (SEQ ID NO: 356) for 2, 3, 5, 7, 10, 14, or 21 days. At the end of the oligonucleotide treatment period, mice were infused with PTH by subcutaneously implanted mini-pumps at a dose of 1 ug/100 g/6 hr. A group of control mice were dosed with either saline, PTH alone (1 ug/100 g/6 hr) or calcitonin (400 ug) plus PTH (1 ug/100 g/6 hr). Following 24 hours of PTH infusion (total PTH delivery of 4ug/100 g), the mice were sacrificed and measurements were made of serum calcium with the Sigma Diagnostics Calcium Kit (Sigma-Aldrich) and RANK mRNA expression in the proximal tibia (as described in other examples herein). Percent RANK mRNA inhibition is normalized to PTH alone treatment.

[1] = Serum calcium after RANK antisense oligonucleotide treatment and PTH infusion: time course (Table 13); format: in vivo, mouse; conditions: for Serum calcium concentration: then 24 h PTH
Procedure: In accordance with the present invention, ISIS 181071 was administered to mice for different time periods to evaluate its ability to inhibit RANK expression and PTH-induced serum calcium concentration increase as a function of oligonucleotide treatment time.
as §1

[2] = Serum calcium concentration 24 hours after PTH infusion in mice treated with RANKL antisense oligonucleotides (Table 10); format: in vivo, mouse; conditions: no oligonucleotide treatment, PTH 1 ug/100 g/6 hr 24 h, calcitonin 400 ng
Procedure: In accordance with the present invention, the effect of antisense oligonucleotide inhibition on PTH-induced serum calcium concentration increase was measured in mice. The serum calcium concentration in mice was measured as a function of antisense oligonucleotide dose. Calcitonin, a known bone antiresorptive agent, was used as a control for antiresorptive activity.
Female Swiss-Webster (5-8 wks old) mice fed a low-calcium diet were dosed subcutaneously for two weeks with either the oligonucleotides ISIS 180819 (SEQ ID NO: 185) or 180814 (SEQ ID NO: 180) at concentrations of 5 mg/kg, 15 mg/kg, 30 mg/kg, or 40 mg/kg. A control group of mice were treated with calcitonin (400 ng) plus PTH (1 ug/100 g/6 hr), PTH alone (1 ug/100 g/6 hr) or saline. Treatment with oligonucleotides was followed with infusion of PTH by subcutaneously implanted mini-pumps at a dose of 1 ug/100 g/6 hr. After 24 hours of PTH infusion (total PTH delivery of 4 ug/100 g), the mice were sacrificed and the serum calcium concentration was measured with the Sigma Diagnostics Calcium Kit (Sigma-Aldrich). The data, summarized in Table 10 are averages from eight mice. Percent mRNA inhibition is normalized to PTH alone treatment.

TCCTCGAGAGGTCTCCTTGC (antisense eT*e[5mC]*e[5mC]*eT*e[5mC]*dG*dA*dG*dA*dG*dG*dT*d[5mC]*dT*d[5mC]*e[5mC]*eT*eT*eG*e[5mC]) [ISIS 181071, 2′-MOE gapmer antisense oligonucleotide targeted to mouse RANK]
RANK mRNA % inhibition (normalized to PTH) Bone Marrow (RANK mRNA; 30 mg/kg daily sc for 2 days): 0%
RANK mRNA % inhibition (normalized to PTH) Bone Marrow (RANK mRNA; 30 mg/kg daily sc for 3 days): 35%
RANK mRNA % inhibition (normalized to PTH) Bone Marrow (RANK mRNA; 30 mg/kg daily sc for 5 days): 32%
RANK mRNA % inhibition (normalized to PTH) Bone Marrow (RANK mRNA; 30 mg/kg daily sc for 7 days): 44%
RANK mRNA % inhibition (normalized to PTH) Bone Marrow (RANK mRNA; 30 mg/kg daily sc for 10 days): 18%
RANK mRNA % inhibition (normalized to PTH) Bone Marrow (RANK mRNA; 30 mg/kg daily sc for 14 days): 36%
RANK mRNA % inhibition (normalized to PTH) Bone Marrow (RANK mRNA; 30 mg/kg daily sc for 21 days): 8%
Serum calcium concentration ([1]; 30 mg/kg daily sc for 2 days): 20 mg/dL
Serum calcium concentration ([1]; 30 mg/kg daily sc for 3 days): 17 mg/dL
Serum calcium concentration ([1]; 30 mg/kg daily sc for 5 days): 16 mg/dL
Serum calcium concentration ([1]; 30 mg/kg daily sc for 7 days): 16 mg/dL
Serum calcium concentration ([1]; 30 mg/kg daily sc for 10 days): 18 mg/dL
Serum calcium concentration ([1]; 30 mg/kg daily sc for 14 days): 15 mg/dL
Serum calcium concentration ([1]; 30 mg/kg daily sc for 21 days): 15 mg/dL
PTH-induced increase in serum calcium concentration ([1]; mice, 30 mg/kg daily s.c. for 2, 3, 5, 7, 10, 14, or 21 days, 24 hours PTH infusion): lessens the PTH-induced increase in serum calcium concentration

B1: parathyroid hormone (peptide, UniProt P01270 32-115, looked up)
Parathyroid hormone: SVSEIQLMHNLGKHLNSMERVEWLRKKLQDVHNFVALGAPLAPRDAGSQRPRKKEDNVLVESHEKSLGEADKADVNVLTKAKSQ
notes: parathyroid hormone infused to induce bone resorption in the mouse model
serum calcium ([2]; control groups under ISIS 180814 columns): 22 mg/dL
serum calcium ([2]; control groups under ISIS 180819 columns): 22 mg/dL
